Measurements from patent EP0136569A2, “Isoflavone derivatives, their production and use” (Takeda Chemical Industries, Ltd., priority 1983, dated 1985).

Test system: young oophorectomized rats
Test: Estrogenic activity (uterine wet weight) in young oophorectomized rats
Assay type: in vivo, Sprague-Dawley rats
Excerpt: Test Example 1 Estrogenic activity of 7-isopropoxy-3-(4-hydroxyphenyl)-4H-1-benzopyran-4-one (hereinafter referred to as compound A) in young oophorectomized rats Sprague-Dawley rats, 33 days old and 11 days after oophorectomy for elimination of endogenous estrogenic activity, were used in groups of 6 to 7 animals. Compound A was suspended in a 1% aqueous solution of hydroxypropyl-cellulose and administered orally for 3 days, while as a representative example of the conventional estrogen drug, estrone was dissolved in sesame oil and administered subcutaneously for 3 days. On the fourth day, each animal was autopsied and its uterine wet weight was recorded.

Structure (SMILES)	Uterine wet weight (mg ± S.D.) (daily dose 6.25 mg/kg, orally for 3 days, autopsy on fourth day, n=7) [mg]	Uterine wet weight (mg ± S.D.) (daily dose 25 mg/kg, orally for 3 days, autopsy on fourth day, n=7) [mg]	Uterine wet weight (mg ± S.D.) (daily dose 100 mg/kg, orally for 3 days, autopsy on fourth day, n=7, significant vs control (P<0.01)) [mg]	Uterine wet weight (mg ± S.D.) (daily dose 400 mg/kg, orally for 3 days, autopsy on fourth day, n=6, significant vs control (P<0.01)) [mg]	uterine weight increasing effect, dose-response curve (orally for 3 days, daily dose levels of 100 mg/kg and 400 mg/kg)	Uterine wet weight (mg ± S.D.) (daily dose 0.0025 mg/kg, subcutaneously for 3 days in sesame oil, n=7, significant vs control (P<0.01)) [mg]	Uterine wet weight (mg ± S.D.) (daily dose 0.005 mg/kg, subcutaneously for 3 days in sesame oil, n=7, significant vs control (P<0.01)) [mg]	Uterine wet weight (mg ± S.D.) (daily dose 0.01 mg/kg, subcutaneously for 3 days in sesame oil, n=7, significant vs control (P<0.01)) [mg]
CC(C)Oc1ccc2c(=O)c(-c3ccc(O)cc3)coc2c1 [Compound A, 7-isopropoxy-3-(4-hydroxyphenyl)-4H-1-benzopyran-4-one]	32.6 ± 1.2	39.2 ± 2.3	56.3 ± 3.7	83.0 ± 6.9	uterine weight increasing effect with a dose-response curve of moderate gradient			
C[C@]12CC[C@@H]3c4ccc(O)cc4CC[C@H]3[C@@H]1CCC2=O [Estrone, estrone, reference compound]						121.1 ± 7.0	200.5 ± 14.3	247.2 ± 14.6
